Experimental data taken from paper PMC10945555, “Improving Activity of New Arylurea Agents against Multidrug-Resistant and Biofilm-Producing Staphylococcus epidermidis” (ACS Medicinal Chemistry Letters, 2024).
In brackets after ≈: the same amount, converted by molar mass.

Key:
Format in all cases: cell-based
H9c2 cells = test: Cytotoxicity, MTT assay, cardiomyocytes; conditions: Rattus norvegicus, 24 h, n = 3
Description: The following cell models were used in the research: rat cardiomyocytes (H9c2 line) and human skin fibroblasts (BJ line). All cell lines used in the work are commercially available and were purchased from ATCC banks (the American Type Culture Collection, Manassas, VI, USA). Cell cultures were carried out in an incubator under standard conditions (37°C, 5% CO 2).
Culture media (Dulbecco's Modified Eagle's Medium -DMEM (H9c2) and Eagle's Minimum Essential Medium-EMEM (BJ) were supplemented with 10% bovine serum and a 1% mixture of penicillin and streptomycin antibiotics. […]
doxorubicin (a cytotoxic drug) were used as reference and positive control, respectively. […]
incubated with studied compound in appropriate concentration for next 24 h. Then MTT solution (5 mg/mL) was transferred into culture medium of incubated cells. After 3 h, once dark crystals of formazan were produced in cells, medium was aspirated and 100 μ L of DMSO was added to dissolve formazan. Absorbance of DMSO solution was read on a multiwell plate reader (Spectra Max iD3, Molecular Devices) at 570 nm. In order to determine viability, absorbance of experimental wells was divided by absorbance of contro l well (not treated) and multiplied by 100 (%). Three separate experiments were performed. IC 50 was calculated using non-linear regression method in OriginPro software. […]

[1] = system: Acinetobacter baumannii ATCC 19606; test: MIC, Gram-negative reference strain; conditions: for MIC: Acinetobacter baumannii, ATCC19606
Description: (§1) 2 Biological assay protocols
(§2) Microbiological tests were carried out under aseptic conditions in a laminar chamber of the 2nd […]
(§3) (BioTectum 1.2, Alchem Poland). The assessment of antimicrobial activity was carried out for final compounds in the form of free bases, soluble in DMSO (Merck, Germany), at the initial […]
(§4) concentration of 1 mg/mL. […]
(§5) were provided by Cayman Chemical, USA.
(§6) The activity of all newly synthesized compounds was tested in vitro on a panel of selected reference strains from the American Type Culture Collection (ATCC) of Gram-positive […]
(§7) 2.2 Effect of evaluated compounds on planktonic cells
(§8) The susceptibility of three reference bacterial strains (Staphylococcus epidermidis ATCC […]
(§9) Table S1) and 81 clinical MDR S. epidermidis (Table S2) to the tested compounds was assessed by determining the MIC value (Minimal Inhibitory Concentration) by microdilution in a liquid medium in 96-well flat-bottom cell culture plates (Nest Biotechnology Scientific, USA). The antibacterial properties of the compo unds were tested in the concentration range from 50 µg/mL to 0.1 µg/mL by making a series of double dilutions of the compound in liquid Mueller -Hinton II Broth Cation Adjusted (MHB II, BBL TM, USA) according to the European Committee on […]
(§10) Antimicrobial Susceptibility Testing guidelines (EUCAST).2,3 The determinations were performed twice. The MIC50 and MIC90 values were determined for each of the tested

[2] = system: Escherichia coli ATCC 25922; test: MIC, Gram-negative reference strain; conditions: for MIC: Escherichia coli, ATCC25922
Description: as §1, §2, §3, §4, §5, §6, §7, §8, §9, §10

[3] = system: Pseudomonas aeruginosa ATCC 27853; test: MIC, Gram-negative reference strain; conditions: for MIC: Pseudomonas aeruginosa, ATCC27853, read-out: MIC P. aeruginosa
Description: as §1, §2, §3, §4, §5, §6, §7, §8, §9, §10

[4] = system: Staphylococcus epidermidis no. 44; test: Real-time bacterial growth analysis; conditions: real-time growth analysis and MBC/MIC ratio
Description: (reduction of navy blue resazurin to pink resorufin in the presence of metabolically active cells) compared to the negative (sterile medium without bacteria and compounds) and positive control (medium with bacteria).9 The minimal biofilm eradication concentration value was analyzed using a high throughput screening the MBEC Assay® Kit (Innovotech, Canada), formerly the Calgary Biofilm Device, according to the manufacturer's insert.10
2.4.1 Determination of biofilm viability by confocal laser scanning microscope (CLSM) […]
by the selected strains was observed using the confocal laser scanning microscopy technique (CLSM, model Inverted Microscope for Industry Leica DMi8, Wetzlar, Germany). Biofilms were grown on Millicell® EZ SLIDE slides (Merck, Germany)11 and incubated with FilmTracer™ SYPRO™ Ruby Biofilm Matrix Stain (ThermoFisher Scientific, USA).12 2.5 Evaluation of bacteriostatic/bactericidal properties […]
determining MBC (Minimal Bactericidal Concentration) values. The study was conducted in accordance with the guidelines of the Clinical and Laboratory Standards Institute (CLSI).13 The MBC value was assumed to be the concentration of the compound inhibiting the growth of strains in 99.9%. Then, the value of the MBC/MIC ratio was calculated to assess its bactericidal or bacteriostatic activity. […]
compound 25 and linezolid expressed as changes in OD600 over time. […]

| SMILES | IC50 (H9c2 cells) | MIC [1] | MIC [2] | MIC [3] | bacteriostatic/bactericidal properties [4] | MIC A. baumannii [1] | MIC E. coli [2] | MIC P. aeruginosa [3] |
| --- | --- | --- | --- | --- | --- | --- | --- | --- |
| CC(=O)NC[C@H]1CN(c2ccc(N3CCOCC3)c(F)c2)C(=O)O1 [linezolid, reference compound] | 16.9 µg/mL (≈ 50.1 µM) | 50 µg/mL (≈ 148 µM) | 50 µg/mL (≈ 148 µM) | 50 µg/mL (≈ 148 µM) | bacteriostatic properties |  |  |  |
| O=C(Nc1cccc(Cl)c1)NC1CCN(CCC(Oc2ccc(C(F)(F)F)cc2)c2cccs2)CC1 (stereo not drawn) [Compound 25] | 26.9 µg/mL (≈ 50 µM) | 50 µg/mL (≈ 92.9 µM) | 50 µg/mL (≈ 92.9 µM) | 50 µg/mL (≈ 92.9 µM) | bacteriostatic properties | exceeded 50 µg/mL | exceeded 50 µg/mL | exceeded 50 µg/mL |
| O=S(=O)(NC1CCN(CCC(Oc2ccc(C(F)(F)F)cc2)c2ccccc2)CC1)c1cccc(Cl)c1 (stereo not drawn) [Compound 12] | 14.2 µg/mL (≈ 25.7 µM) |  |  |  |  |  |  |  |
| O=S(=O)(NC1CCN(CCC(Oc2ccc(C(F)(F)F)cc2)c2cccs2)CC1)c1cccc(Cl)c1 (stereo not drawn) [Compound 14] | 28 µg/mL (≈ 50.1 µM) |  |  |  |  |  |  |  |
